Reference: US9695209B2, “Synthesis of amphiphilic calixarene glycoside detergents and use of same for extracting and stabilizing native functional membrane proteins” (CALIXAR, priority 2014, dated 2017)
Where two headings read alike, the source gives them in different places. Each block holds one molecule with its values, some of them ahead of it.

Experiments:
[1] = target: T1, Bacteriorhodopsin protein (bR) (Halobacterium salinarum, UniProt P02945); test: Stability test of bacteriorhodopsin protein over time (absorbance at 550 nm); settings: after 1 month and a half exposure at 37° C. in the dark
T1 sequence (P02945 14-262): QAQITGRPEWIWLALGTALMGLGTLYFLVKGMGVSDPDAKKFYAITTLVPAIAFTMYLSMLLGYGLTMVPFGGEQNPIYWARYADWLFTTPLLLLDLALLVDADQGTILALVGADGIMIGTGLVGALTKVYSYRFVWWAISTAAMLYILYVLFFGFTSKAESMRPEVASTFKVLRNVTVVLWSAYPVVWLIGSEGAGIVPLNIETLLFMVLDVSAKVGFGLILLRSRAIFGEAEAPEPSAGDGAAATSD

A2A adenosine protein = A2A adenosine protein (Homo sapiens, UniProt P29274); test: Test of solubilization of A2A membrane protein (Western Blot after 100 000 g centrifugation); settings: for solubility (solubilization) of A2A adenosine protein: 4° C, protein 20 mg/ml
Method: Solubility Test of Protein of Interest: A2A Adenosine.
The protein content was set at 20 mg/ml (20 mM Tris-Cl pH 8.0, 150 mM NaCl, 10% Glycerol). The solubilization is effected at 4° C. The solubilized or non-solubilized protein fractions are separated by a 100 000 g centrifugation step for 1 hour at 4° C.

[2] = Average particle size of aggregates by DLS (Dynamic Light Scattering); format: physicochemical
Method: FIGS. 3a) and 3b) are two diagrams showing the average particle size obtained by DLS (Dynamic Light Scattering) analysis of CALX173GALO compound (FIG. 3a) and CALX173GLUK compound (FIG. 3b) at respectively 0.47 and 0.08 mM.
FIGS. 3a and 3b show the aggregation state of CALX173GALO and CALX173GLUK. As illustrated, all the systems observed form aggregates of the micellar type.

[3] = CMC (H2O) of known detergents as stated in figure legend; format: physicochemical; settings: no source given
[4] = from VanAken et al. 1986; cited from earlier work

Chain of A2A adenosine protein (P29274 whole entry): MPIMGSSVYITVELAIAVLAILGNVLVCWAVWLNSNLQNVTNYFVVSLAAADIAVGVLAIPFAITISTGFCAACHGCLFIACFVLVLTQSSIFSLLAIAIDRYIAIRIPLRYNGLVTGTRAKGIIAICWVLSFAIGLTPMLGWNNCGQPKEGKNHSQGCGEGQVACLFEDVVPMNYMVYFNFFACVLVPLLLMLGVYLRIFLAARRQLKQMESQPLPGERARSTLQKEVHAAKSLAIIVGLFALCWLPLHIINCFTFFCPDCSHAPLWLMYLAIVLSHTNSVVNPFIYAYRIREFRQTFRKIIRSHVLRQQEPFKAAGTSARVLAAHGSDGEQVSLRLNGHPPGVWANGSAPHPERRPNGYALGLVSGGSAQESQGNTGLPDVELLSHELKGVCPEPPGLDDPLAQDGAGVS

Molecule: 5,11,17-Tris{2-[4-(b-D-glucopyranosyl)-1H-1,2,3-triazol-1-yl]-ethyl}-25-heptoxy-26,27,28-trismethoxy-calix[4]arene [CALX173GLUK]
absorbance at 550 nm of bR protein [1]: 0.75
solubility (solubilization) of A2A adenosine protein (A2A adenosine protein; detergent at 8 CMC): nonexistent
solubility (solubilization) of A2A adenosine protein (A2A adenosine protein; detergent at 20 CMC): enhances the solubilization
dparticules (average particle size by DLS) ([2]; at 0.08 mM): 5.53 nm

CMC (H2O) [3]: 2.5 mM
Molecule: 25-heptyloxy-26,27,28-tris(hydroxyl)calix-[4]-arene-5,11,17-tris(acetic acid) sodium salt [CALX173ACE]

Molecule: CCCCCCCOc1c2cccc1Cc1cc(CCO[C@@H]3O[C@H](CO)[C@H](O)[C@H](O)[C@H]3O)cc(c1OC)Cc1cc(CCO[C@@H]3O[C@H](CO)[C@H](O)[C@H](O)[C@H]3O)cc(c1OC)Cc1cc(CCO[C@@H]3O[C@H](CO)[C@H](O)[C@H](O)[C@H]3O)cc(c1OC)C2 [CALX173GALO, 5,11,17-Tris[2-(b-D-galactopyranosyloxy)ethyl]-25-heptoxy-26,27,28-trismethoxy-calix[4]arene]
absorbance at 550 nm of bR protein [1]: around 0.4
solubilization of A2A protein compared with reference compounds DDM and CALX173ACE (A2A adenosine protein; 20 CMC): better
solubility (solubilization) of A2A adenosine protein (A2A adenosine protein; detergent at 20 CMC): partial
dparticules (average particle size by DLS) ([2]; at 0.47 mM): 5.46 nm

solubilization of A2A protein (A2A adenosine protein; 20 CMC, reference compounds): about 20%
solubility (solubilization) of A2A adenosine protein (A2A adenosine protein; detergent at 20 CMC): partial
Molecule: CCCCCCCCCCCCO[C@@H]1O[C@H](CO)[C@@H](O[C@H]2O[C@H](CO)[C@@H](O)[C@H](O)[C@H]2O)[C@H](O)[C@H]1O [DDM, n-dodecyl-β-D-maltopyranoside, reference compound]
CMC (H2O) [4]: 0.17 mM

Molecule: CCCCCCCCO[C@@H]1O[C@H](CO)[C@@H](O)[C@H](O)[C@H]1O [OG, Octyl Glucoside, reference compound]
stability of the bR protein [1]: nonexistent

Molecule: Maltose-Neopentyl Glycol [MNG-12, reference compound]
absorbance at 550 nm of bR protein [1]: around 0.4
